Data reported in ChEMBL document CHEMBL3046387, “Antidepressant activity of carbamates and urea derivatives” (Med Chem Res, 2012).
Active and inactive are the calls of the source. The calls are words filed in the database; no cut-off is given here.

Each compound was assayed on Mus musculus (assay: Antidepressant activity in Mus musculus (mouse) assessed as reduction of immobility time at 10 mg/kg after 1 hr measured for 5 min by forced swim test).
Type: functional

| SMILES | inhibition | inhibition in vivo at 10 mg/kg [%] |
| --- | --- | --- |
| CCN(CC)C(=O)Nc1c(C)cccc1C | inactive | – |
| CCCCCCCOC(=O)Nc1ccccc1 | – | 32.5 |
| CCOC(=O)Nc1ccccc1 [ETHYL PHENYLCARBAMATE] | – | 21.6 |
| O=C(Nc1ccccc1)N1CCN(c2ccccc2)CC1 | – | 27.7 |
| CCN(CC)C(=O)Nc1ccccc1C(=O)O | – | 3.52 |
| CCNC(=S)N1CCN(c2ccccc2)CC1 | inactive | – |
| CCN(CC)C(=O)Nc1ccc(C(=O)O)cc1 | – | 16.7 |
| NNCCc1ccccc1 [PHENELZINE] | – | 15.9 |
| CCN(CC)C(=O)Nc1ccc(Cl)cc1 | – | 7.04 |
